Columns and labels:
Format in all cases: cell-based
hTLR8 = target: T1, hTLR8 (Homo sapiens, UniProt Q9NR97); test: SEAP reporter assay for hTLR-8 activity (HEK-Blue hTLR8 cells); conditions: ± SD; hTLR8 transfected HEK-Blue cells, Null subtracted; three independent measurements; 12 hours; >100 = no activity observed at 100 μM; read-out: EC50 TLR8
T1 construct: host or cells: HEK293 (HEK-Blue hTLR8)
T1 sequence (Q9NR97 27-1041): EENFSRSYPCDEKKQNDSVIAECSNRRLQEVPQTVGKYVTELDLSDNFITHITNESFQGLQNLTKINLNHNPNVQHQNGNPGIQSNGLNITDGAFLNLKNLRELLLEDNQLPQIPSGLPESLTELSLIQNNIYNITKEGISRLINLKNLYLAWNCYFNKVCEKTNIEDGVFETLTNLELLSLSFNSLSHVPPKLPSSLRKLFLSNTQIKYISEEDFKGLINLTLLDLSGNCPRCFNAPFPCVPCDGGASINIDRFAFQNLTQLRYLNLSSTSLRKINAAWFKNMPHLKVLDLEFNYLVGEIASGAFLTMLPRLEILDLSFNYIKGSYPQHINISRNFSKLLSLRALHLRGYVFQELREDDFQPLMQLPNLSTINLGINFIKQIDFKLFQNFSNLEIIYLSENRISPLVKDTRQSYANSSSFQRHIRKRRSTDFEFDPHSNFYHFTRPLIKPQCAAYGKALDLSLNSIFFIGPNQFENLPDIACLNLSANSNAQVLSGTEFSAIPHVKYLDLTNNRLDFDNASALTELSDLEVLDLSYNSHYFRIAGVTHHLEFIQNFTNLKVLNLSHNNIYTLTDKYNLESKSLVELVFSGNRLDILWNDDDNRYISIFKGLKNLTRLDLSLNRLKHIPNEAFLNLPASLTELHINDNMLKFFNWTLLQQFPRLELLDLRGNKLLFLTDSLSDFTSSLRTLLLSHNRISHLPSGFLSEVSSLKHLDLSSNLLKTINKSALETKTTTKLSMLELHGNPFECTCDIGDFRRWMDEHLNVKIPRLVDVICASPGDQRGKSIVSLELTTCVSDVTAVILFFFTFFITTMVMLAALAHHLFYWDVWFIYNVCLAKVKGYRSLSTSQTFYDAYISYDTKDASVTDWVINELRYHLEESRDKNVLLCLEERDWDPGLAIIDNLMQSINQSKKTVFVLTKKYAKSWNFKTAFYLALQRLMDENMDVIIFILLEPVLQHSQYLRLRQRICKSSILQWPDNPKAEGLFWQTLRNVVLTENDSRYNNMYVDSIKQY
Description: (§1) TLR activation induces NF-κB production and subsequent SEAP secretion, which is measured using HEK-Detection media (InvivoGen) containing a colorimetric substrate for SEAP (UV-Vis, 637 nm).
(§2) The experiments followed manufacturer protocol as follows: SEAP levels were measured via absorbance at 637 nm using HEK-Blue Detection cell culture medium (InvivoGen), which contains a SEAP-specific colorimetric substrate. Compound stock solutions were first diluted in sterile DMSO at a concentration of 10 mM. Lower concentrations were prepared by serial dilution of the initial 10 mM stock samples into sterile DMSO and these solutions (22 μL) were subsequently diluted into sterile H2O (198 μL) using a BioTek Precision XS pipetting system. HEK-Blue hTLR7, HEK-Blue hTLR8, Null 1−k, and Null 1 cell suspensions in sterile HEK-Blue Detection medium were prepared at a density of 220,000 cells per mL. Clear bottom, 96-well tissue culture treated plates (Corning) were seeded with hTLR7 and Null 1−k or hTLR8 and Null 1 cell suspensions (180 μL/well), after which 20 μL of the various sample concentrations in 10% v/v DMSO/H2O were added (20 μL) in quadruplicate wells to yield the desired testing concentration in 1% v/v DMSO cell suspension. Plates were incubated at 37° C. and 5% CO2 in the dark. Absorbance measurements were taken at 637 nm at 12 hours, 4 replicates per concentration point, per cell line (hTLR7, hTLR8, Null 1−k, Null 1). Three independent measurements on different days were performed for each analog.
(§3) Corresponding well absorbance values for each concentration tested were averaged with respect to days tested, and the average relative NF-κB induction (UV-Vis, 637 nm) of the null cell lines (Null 1-k or Null 1) were subtracted from the respective average TLR expressing cell line (hTLR7 or hTLR8) absorbance averages. […] The three independent, normalized averages for each analog were then pooled, and the data was fit using the Hill-Slope model (GraphPad Prism v7.0) using the non-linear fit from the [Agonist] vs. response—Variable Slope (four parameters) with a hill slope constrained to less than 3.

hTLR7 = target: T2, hTLR7 (Homo sapiens, UniProt Q9NYK1); test: SEAP reporter assay for hTLR-7 activity (HEK-Blue hTLR7 cells); conditions: ± SD; hTLR7 transfected HEK-Blue cells, Null subtracted; three independent measurements; 12 hours; read-out: EC50 TLR7
T2 construct: host or cells: HEK293 (HEK-Blue hTLR7)
T2 sequence (Q9NYK1 27-1049): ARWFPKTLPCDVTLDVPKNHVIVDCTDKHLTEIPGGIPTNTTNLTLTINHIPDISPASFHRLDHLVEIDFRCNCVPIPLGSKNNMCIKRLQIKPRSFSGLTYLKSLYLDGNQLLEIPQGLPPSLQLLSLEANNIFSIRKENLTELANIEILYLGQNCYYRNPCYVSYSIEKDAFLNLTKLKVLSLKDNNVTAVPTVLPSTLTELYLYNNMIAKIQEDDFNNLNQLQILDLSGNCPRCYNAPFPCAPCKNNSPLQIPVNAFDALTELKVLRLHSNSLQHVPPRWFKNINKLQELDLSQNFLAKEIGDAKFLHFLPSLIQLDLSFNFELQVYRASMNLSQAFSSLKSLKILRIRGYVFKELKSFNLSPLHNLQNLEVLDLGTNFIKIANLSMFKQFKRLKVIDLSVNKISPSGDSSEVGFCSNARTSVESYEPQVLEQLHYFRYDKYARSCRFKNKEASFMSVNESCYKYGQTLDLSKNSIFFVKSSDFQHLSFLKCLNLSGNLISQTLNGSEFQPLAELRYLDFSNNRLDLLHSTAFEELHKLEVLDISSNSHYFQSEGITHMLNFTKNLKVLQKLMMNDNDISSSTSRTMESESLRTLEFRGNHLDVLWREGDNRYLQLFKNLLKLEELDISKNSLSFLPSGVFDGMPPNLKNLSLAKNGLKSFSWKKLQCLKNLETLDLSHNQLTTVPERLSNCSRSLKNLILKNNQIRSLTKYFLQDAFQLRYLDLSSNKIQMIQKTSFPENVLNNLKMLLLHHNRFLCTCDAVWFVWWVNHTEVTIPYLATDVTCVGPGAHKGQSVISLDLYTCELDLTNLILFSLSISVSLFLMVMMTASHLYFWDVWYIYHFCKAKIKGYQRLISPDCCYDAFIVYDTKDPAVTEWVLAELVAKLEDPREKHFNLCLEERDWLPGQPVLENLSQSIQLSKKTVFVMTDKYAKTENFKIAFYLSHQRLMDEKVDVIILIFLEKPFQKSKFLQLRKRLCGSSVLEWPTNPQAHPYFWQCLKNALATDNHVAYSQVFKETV
Description: as §1, §2, §3

[1] = system: canine peripheral blood mononuclear cells (cPBMCs); test: Cytokine production in canine PBMCs by ELISA (Example 2); conditions: ± SD, 20 μM, 29 hours, ELISA, triplicate
Description: The imidazoquinolines were further screened for cytokine production in canine peripheral blood mononuclear cells (cPBMCs). […] TNFα and IL-12 were chosen as they are typically seen in a Th-1 cytokine response.
Peripheral blood from a healthy canine donor was obtained with appropriate informed consent of the owner and under approved institutional guidelines. Blood (8 mL per tube) was drawn via sterile venipuncture into a BD Vacutainer cell preparation tube containing sodium heparin (BD Biosciences). PBMCs were isolated within one hour following procurement by density gradient centrifugation according to the manufacturer protocol and resuspended to 2.22×10^6 cells/mL in sterile RPMI 1640 medium with L-glutamine (Gibco) supplemented with 100 U/mL penicillin, 100 μg/mL streptomycin (Corning) and 10% (v/v) heat-inactivated Fetalgro (RMBIO). Corning 3917, 96-well tissue culture treated plates were seeded with the PBMC suspension (180 μL/well), 20 μL of the serially diluted TLR agonists were added in triplicate to yield the desired concentrations in a 1% (v/v) DMSO cell suspension. Cells were incubated at 37° C. in 5% CO2 for 9 hours (FIGS. 3A-3D) or 29 hours (Table 2) after which supernatants were removed and frozen at −80° C. Cytokine secretion levels were measured by ELISA (Duoset, R&D Systems) according to the manufacturer protocol. Samples and standards (n=3) were thawed and plated onto a Maxisorp flat-bottom, 384-well plate (Thermo Scientific) using a BioTek Precision XS pipetting system. Cytokine concentrations were determined by a hyperbolic or four-parameter logistic non-linear regression of the recombinant standards and subsequent interpolation using Graphpad Prism 7.0.

human TLR7 (hTLR7) = target: T3, human TLR7 (hTLR7) (Homo sapiens, UniProt Q9NYK1); test: In vitro TLR7 activity assay (HEK-Blue hTLR7, QUANTI-Blue, Example 3); conditions: 16 h incubation; Null 1-k subtracted
T3 construct: host or cells: HEK-293 (HEK-Blue hTLR7)
T3 sequence (Q9NYK1 27-1049): T2 sequence (Q9NYK1 27-1049)
Description: TLR agonist activity was measured in a dose-response study using reporter cell lines expressing the human TLR7 (hTLR7). […] The hTLR7 activity of R848-Toco, the formulation and its components were assessed using HEK-293 cells co-transfected with the hTLR7 gene and an inducible SEAP reporter gene along with the corresponding null control line (HEK-Blue™ hTLR7 and Null-1k cells, Invivogen). Cells were maintained in DMEM media with selective antibiotics according to the manufacturer protocol.^26 HEK-Blue™ cells were seeded into 96 well plates at a density of 220,000 cells/mL with 180 μL/well of culture medium. Stock solutions in DMSO were first serially diluted to seven concentrations (DMSO solutions further diluted into H2O). Each well was stimulated with 20 μL of agonists or agonist-free controls (equivalent concentration of HA-Toco, D-α-Tocopherol succinate, PBS or […] DMSO) at the determined final concentrations in 5 replicates. After 16 h of incubation at 37° C. in a 5% CO2 atmosphere, 20 μL of the supernatant from each well was sampled and spiked into 180 μL of QUANTI-Blue™ solution followed by incubation for 1 h at 37° C. Relative hTLR7 activity was then analyzed by UV-Vis at 637 nm using a microplate UV reader (SpectraMAX GeminiXS, Molecular Devices, San Jose, CA, USA). For each compound and concentration, a corresponding sample was applied to the HEK-Blue™ Null-1k cell line. The TLR7 agonist activity was determined after averaging across hTLR7 replications and subtracting the averaged Null response.
Activation levels were calculated as the difference between the average readings of the hTLR7 cell line and the Null 1-k cell line, to account for non-hTLR7 related induction of NF-κB. […] Therefore, this study confirmed that R848-Toco, formulated with HA-Toco as an emulsion, maintained its TLR agonist activity. […]

CCOCc1nc2c(N)nc3cc(C#N)ccc3c2n1CC(C)C [Compound 11, 4-Amino-7-carbonitrile-2-(ethoxymethyl)-1-(2-methylpropyl)-1H-imidazo[4,5-c]quinoline]
EC50 (hTLR8): > 100 µM | EC50 (hTLR7): 6.8 ± 0.7 µM | Cytokine IFNg [1]: 4 ± 3 pg/mL | Cytokine IL-2 [1]: 57 ± 14 pg/mL | Cytokine IL-6 [1]: 71 ± 20 pg/mL | Cytokine IL-10 [1]: 6 ± 2 pg/mL | Cytokine IL-12 [1]: 190 ± 62 pg/mL | Cytokine TNFa [1]: 7 ± 1 pg/mL

CCCCc1nc2c(N)nc3cc(C#N)ccc3c2n1CC(C)(C)O [Compound 12, 4-Amino-2-butyl-7-carbonitrile-1-(2-hydroxy-2-methylpropyl)-1H-imidazo[4,5-c]quinoline]
EC50 (hTLR8): 3.9 ± 0.2 µM | EC50 (hTLR7): 0.79 ± 0.23 µM | Cytokine IFNg [1]: 12 ± 4 pg/mL | Cytokine IL-2 [1]: 45 ± 22 pg/mL | Cytokine IL-6 [1]: 290 ± 77 pg/mL | Cytokine IL-10 [1]: 14 ± 3 pg/mL | Cytokine IL-12 [1]: 418 ± 72 pg/mL | Cytokine TNFa [1]: 44 ± 10 pg/mL

CCOCc1nc2c(N)nc3cc(C#N)ccc3c2n1CC(C)(C)O [Compound 13, 4-Amino-7-carbonitrile-2-(ethoxymethyl)-1-(2-hydroxy-2-methylpropyl)-1H-imidazo[4,5-c]quinoline]
EC50 (hTLR8): 27 ± 6 µM | EC50 (hTLR7): 3.5 ± 0.7 µM | Cytokine IFNg [1]: 0.2 ± 0.4 pg/mL | Cytokine IL-2 [1]: 46 ± 42 pg/mL | Cytokine IL-6 [1]: 214 ± 69 pg/mL | Cytokine IL-10 [1]: 6 ± 3 pg/mL | Cytokine IL-12 [1]: 13 ± 3 pg/mL | Cytokine TNFa [1]: 80 ± 20 pg/mL

Cc1c(C)c2c(c(C)c1OC(=O)CCC(=O)O)CC[C@@](C)(CCC[C@H](C)CCC[C@H](C)CCCC(C)C)O2 [Toco-succinate, (+)-α-tocopherol succinate]
hTLR7 activation (NF-κB, in words) (human TLR7 (hTLR7)): did not induce any significant activation

— patent publication US12295970B2, “Imidazoquinoline compounds and prodrugs thereof” (UNIVERSITY OF KANSAS, priority 2019, dated 2025)
